Laboratory results: patent US20070112018A1, “Treatment of peripheral arterial occlusive disease” (priority 2005, published 2007)
Read-outs that look alike come from different tables or passages of the source.

Assays:
[1] = human, in vivo
Description: In another study, three dose levels of rifalazil were administered for the treatment of non-gonococcal urethritis in 170 male patients. Doses used were in this study were single-doses of 2.5, 12.5 mg and 25 mg. Males were between 18-45 years of age with signs or symptoms of urethritis, including urethral discharge.

[2] = Tissue distribution in rats after a single oral dose (Study 6510-109); assay type: in vivo, rat; details: for Kp: oral, 3 mg/kg, species not given
Description: Distribution to the majority of tissues was higher than observed plasma levels.
(§1) In rats and dogs, the Vdβ/F following oral administration was 40-80 L/kg. […] The highest mean Cmax observed was in the wall of the GI tract and occurred approximately 1 hour post-dose. […] A large tissue compartment of rifalazil is considered important for efficacy against Chlamydia given the intracellular nature of Chlamydia infection.

C. pneumoniae = test: Rabbit model of atherosclerosis accelerated by C. pneumoniae infection, cholesterol diet; details: C. pneumoniae-infected rabbits; rifalazil 5 mg/kg or azithromycin 30 mg/kg PO daily 1 week then twice weekly 6 weeks; 19 weeks after beginning treatment
Description: Thirty received three separate C. pneumoniae inoculations performed at 3-week intervals. Similarly, 15 control rabbits were intranasally inoculated with 1 mL of normal saline under the same conditions.
Nineteen weeks after beginning antibiotic treatment, the rabbits were euthanized. After euthanasia, hearts were examined histologically and by immunofluorescence. Animal serum samples were also examined for seropositivity to the infecting organism.

[3] = Single 25 mg rifalazil with Ortho-Novum 1/35 in post-menopausal female volunteers, adverse events; details: human, in vivo
Description: In another study, a single oral dose of 25 mg rifalazil was administered and its effects on ethinyl estradiol and norethindrone levels administered as the contraceptive Ortho-Novum 1/35® in 16 healthy post-menopausal female volunteers for 14 days was determined. The incidence of AEs was similar between the two treatment periods, with 13 (93%) of the 14 subjects included in the safety population experiencing at least 1 AE during dosing with Ortho-Novum 1/35 alone and 12 (86%) during dosing with rifalazil and Ortho-Novum 1/35. Overall, 4 (29%) subjects experienced at least 1 AE considered by the Investigator to be at least possibly related to rifalazil. The most commonly reported rifalazil-related events were nausea (4 subjects, 29%); headache (3 subjects, 21%); and loose stools, feeling hot, rigors, and myalgia (2 subjects each, 14%).
The majority of AEs were of mild or moderate intensity. One subject experienced myalgia of severe intensity during dosing with rifalazil and Ortho-Novum 1/35 that was assessed as probably related to study medication. […] Two subjects withdrew from the study because of AEs during the Ortho-Novum 1/35 only dosing period; neither subject received rifalazil.

[4] = Tissue concentrations after multiple oral doses in the monkey; assay type: in vivo
Description: as §1

[5] = Single 25-mg dose under three food conditions in healthy male adults, adverse events; assay type: in vivo, human
Description: In another study, a single 25-mg oral dose of rifalazil was administered to healthy male adults under one of three distinct food conditions: a high fat meal (60% fat), standard meal (30% fat), and under fasting conditions. No placebo-control was used in this study. Twelve subjects were enrolled, 10 of whom received all doses of rifalazil. Although high fat meal conditions result in higher plasma levels of rifalazil, the incidence of AEs was similar across all food conditions. A total of 83% of subjects (10/12) experienced treatment-emergent AEs, all of mild to moderate intensity. Fifty-eight percent were considered by the investigator to be drug-related. The most common reported drug-related AEs were back pain (25%) and headache (17%), and these were reported only in subjects under fed conditions. All other study medication-related AEs were reported by one subject (8%) only.

[6] = Phase 1 pharmacokinetic analyses by gender, single or multiple doses 2.5-50 mg; assay type: in vivo, human
Description: There were no significant differences between males and females for AUC0-∞ when data were normalized to 1 mg/kg following single doses of 2.5 to 50 mg rifalazil (see FIG. 3 and FIG. 4).
The Vdβ/F was large indicating extensive distribution in the body. […] The mean minimum plasma concentrations (Cmin) of rifalazil over time during 5 days of dosing with 2.5 and 5 mg rifalazil increased from Days 2-6 in both males and females at both dose levels.

[7] = Placebo-controlled study of 30 mg and 100 mg in healthy volunteers, adverse events; assay type: in vivo, human
Description: In a placebo-controlled study of 30 mg and 100 mg in […], […] received the 30 mg dose of rifalazil. Sixty-two percent of patients (5/8) reported AEs while 33% of placebo subjects (3/9) reported AEs. The only AE of note reported in this rifalazil dose group was headache (38%, […]) compared to the placebo-treated group (11%, 1/9 subjects). […] However, this baseline value was not considered clinically significant nor were subsequent nadir values obtained on Days 3 and 7 (3.8×10^3 cells/mm^3).

[8] = 25 mg cumulative doses over one week, adverse events by regimen; assay type: in vivo, human
Description: Different dosing regimens of rifalazil that achieve 25-mg cumulative doses in 1 week also provide relevant clinical information on the safety of 25 mg administered as a single dose once per week.
For a cumulative dose of 25 mg, the overall incidence of AEs was somewhat lower when rifalazil was administered as 5 mg QD for 5 days, compared with a single dose of 25 mg (75%). Similarly, the overall incidence of drug-related AEs was lower when 25 mg was administered as a 5 mg for 5 days (63%), vs. 12.5 mg as 2 doses (separated by 72 hours) (70%), and as a single dose of 25 mg (75%).

[9] = human, in vivo; remark: listed apart in the source

With `CO[C@H]1/C=C/O[C@@]2(C)Oc3c(C)c(O)c4c(=O)c(c5oc6cc(N7CCN(CC(C)C)CC7)cc(O)c6nc-5c4c3C2=O)NC(=O)/C(C)=C\C=C\[C@H](C)[C@H](O)[C@@H](C)[C@@H](O)[C@@H](C)[C@H](OC(C)=O)[C@@H]1C` [rifalazil, 3′-hydroxy-5′-(4-isobutyl-1-piperazinyl) benzoxazinorifamycin] the “deaths, serious AEs, or discontinuations due to AEs” value [1] was “No deaths, serious AEs, or discontinuations due to AEs”, the “incidence of AEs considered possibly related to study drug” value ([1]; male) was 23% and the “incidence of clinically significant laboratory abnormalities” value ([1]; male) was 21%. The Kp ([2]; rat, liver, read-out: tissue to plasma ratio (AUC), liver) was 33.7, the Kp ([2]; rat, testes, read-out: tissue to plasma ratio (AUC), testes) was 4.9 and the concentration at 1 h ([2]; rat, wall of the GI tract, rats, single oral 3 mg/kg, at 1 hour) was 5400 ng/g. For the same compound, the “tissue concentration, spleen” value ([2]; rats, single oral 3 mg/kg, at 8-12 hours post dose) was 5.1-9.3 μg/gm, the “Plaque Area Stenosis (%)” value (C. pneumoniae) was 24.2% and the “subjects experiencing at least 1 AE” value ([3]; female) was 86%. The “deaths or other serious AEs” value [3] was “No deaths or other serious AEs”, the “subjects with transient Grade 3 decreases in absolute lymphocyte count (ALC<0.5×10^3/mm^3)” value [3] was “two” and the “concentrations in genitourinary and GI tissues and coronary arteries versus plasma” value [4] was “exceeded concentrations in plasma”. The “AEs considered by the investigator to be drug-related” value [5] was “Fifty-eight”, the “all other study medication-related AEs (each, one subject)” value [5] was 8% and the “subjects experiencing treatment-emergent AEs” value ([5]; all food conditions (10/12)) was 83%. The drug-related back pain ([5]; only under fed conditions) was 25%, the drug-related headache ([5]; only under fed conditions) was 17% and the steady state ([6]; after 5 days of dosing with 2.5 and 5 mg) was “does not appear that steady state was reached”. It also gave a half-life ([6]; both sexes, human, plasma, oral, following single doses, read-out: mean elimination t1/2) of 4.17 to 6.25 days, a half-life ([6]; both sexes, human, plasma, oral, multiple dosing, up to 5 days, read-out: mean elimination t1/2) of 3.62 to 7.25 days and a half-life ([6]; both sexes, human, plasma, oral, read-out: t1/2 (converted)) of about 4.17 days. The Tmax ([6]; both sexes, human, plasma, oral, single or multiple doses 2.5-50 mg, males and females, read-out: mean time to maximum concentration (Tmax)) was 4 to 6 h, the Vdβ/F ([6]; in vivo) was “large” and the “exposure (mean Cmax and AUC0-∞) as a function of dose” value ([6]; males and females, 2.5 to 50 mg, increase not dose proportional) was “increased with rifalazil dose”. For the same compound, the headache ([7]; 30 mg single oral dose (3/5 subjects)) was 38%, the “patients reporting AEs” value ([7]; 30 mg single oral dose (5/8)) was “Sixty-two” and the “WBC count nadir values, one subject” value ([7]; 30 mg single oral dose, Days 3 and 7, baseline 4.3×10^3) was 3.8×10^3 cells/mm^3. For the same compound, the “incidence of flu-like symptoms” value ([8]; 5 mg QD for 5 days (5/15 patients)) was 33%, the “overall incidence of drug-related AEs” value ([8]; 5 mg for 5 days) was 63% and the “overall incidence of drug-related AEs” value ([8]; 12.5 mg as 2 doses separated by 72 hours) was 70%. The “incidence of flu-like symptoms” value ([8]; 12.5 mg×2 dose regimen) was 15%, the “incidence of flu-like symptoms” value ([8]; 25 mg single-dose (3/16 patients)) was 19% and the “overall incidence of AEs” value ([8]; single dose of 25 mg) was 75%. For the same compound, the “overall incidence of drug-related AEs” value ([8]; single dose of 25 mg) was 75% and the “overall extent of metabolism” value [9] was “less than 3 % of the administered dose”.
